Test results: patent US8044198B2, “Sirtuin modulating compounds” (Sirtris Pharmaceuticals, Inc., priority 2005, dated 2011)
Like-named read-outs stand apart in the source and are kept apart here.

Molecular target: T1, SIRT1 (Homo sapiens, UniProt Q96EB6)
T1 sequence (Q96EB6 1-747): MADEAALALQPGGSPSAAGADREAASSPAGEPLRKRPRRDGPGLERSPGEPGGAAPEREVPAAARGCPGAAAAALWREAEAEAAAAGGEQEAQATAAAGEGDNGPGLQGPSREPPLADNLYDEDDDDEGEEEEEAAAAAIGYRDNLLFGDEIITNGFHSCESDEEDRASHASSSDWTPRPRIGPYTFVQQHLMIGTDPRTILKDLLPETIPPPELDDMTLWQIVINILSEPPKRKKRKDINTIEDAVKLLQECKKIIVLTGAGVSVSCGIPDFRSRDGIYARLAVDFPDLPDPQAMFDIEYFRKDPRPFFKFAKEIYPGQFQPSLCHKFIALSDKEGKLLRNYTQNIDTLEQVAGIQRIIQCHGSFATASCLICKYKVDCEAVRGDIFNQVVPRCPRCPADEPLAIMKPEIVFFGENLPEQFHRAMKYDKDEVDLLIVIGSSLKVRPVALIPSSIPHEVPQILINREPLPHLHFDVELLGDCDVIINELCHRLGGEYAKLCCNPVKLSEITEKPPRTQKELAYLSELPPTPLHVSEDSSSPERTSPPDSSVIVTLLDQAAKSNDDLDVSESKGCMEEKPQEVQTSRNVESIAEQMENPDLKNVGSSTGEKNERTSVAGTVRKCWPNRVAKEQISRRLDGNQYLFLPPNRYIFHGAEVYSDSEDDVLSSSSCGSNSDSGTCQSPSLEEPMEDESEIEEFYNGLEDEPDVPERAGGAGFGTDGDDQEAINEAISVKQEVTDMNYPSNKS
Assay: SIRT1 mass spectrometry (MS) based deacetylation assay; as to FOLD ACT. MS: test concentration or dose not given here
Type: biochemical
Details: for EC50: read-out: ED50 MS ASSAY

[1] = SIRT1 activation, mass spectrometry assay
[2] = fold activation of SIRT1 as determined by MS
[3] = SIRT1 fold activation as determined by MS
[4] = fold activation of SIRT1, mass spectrometry assay
[5] = Sirt1 activators, fold activation as determined by MS
[6] = Sirt1 activators, mass spectrometry assay

Row | SMILES | EC50 [1] | FOLD ACT. MS [5] | EC50 [6] | also measured
1 | COc1ccc(C(=O)Nc2cccc(-c3nc4ccccc4[nH]3)c2)c(OC)c1 [Compound 211] | < 5 µM |  |  | FOLD ACT. MS [2]: B (B (Fold Activation <250%))
2 | Cc1cc(C(=O)Nc2cccc(-c3nc4ccncc4s3)c2)no1 [Compound 304] | < 5 µM |  |  | FOLD ACT. MS [4]: B (B (Fold Activation <250%))
3 | COc1ccc(C(=O)Nc2ccc(-c3nc4cccnc4[nH]3)cc2)c(OC)c1 [Compound 151] | > 150 µM |  |  | 
4 | O=C(Nc1ccccc1-c1cn2c(CN3CCNCC3)csc2n1)c1ccc2occc2c1 [Compound 338] | 5 to 50 µM |  |  | FOLD ACT. MS [4]: A (A (Fold activation >250%))
5 | O=S(=O)(Nc1cc(-c2nc3ncccc3o2)ccn1)c1ccc(Cl)cc1 [Compound 652] |  |  |  | IC50 (Sirt1 Inhibitors, mass spectrometry assay): 51 to 100 µM
6 | O=C(Nc1ccccc1-c1cn2c(CN3CCNCC3)csc2n1)c1cnc2ccccc2n1 [Compound 441] | < 5 µM |  |  | FOLD ACT. MS [4]: A (A (Fold activation >250%))
7 | COc1ccc(C(=O)Nc2ccccc2-c2cn3cccnc3n2)c(OC)c1 [Compound 437] | 5 to 50 µM |  |  | FOLD ACT. MS [4]: B (B (Fold Activation <250%))
8 | COc1ccc(C(=O)Nc2ccccc2-c2nc3ncccc3o2)cc1OC [Compound 96] | < 5 µM |  |  | FOLD ACT. MS [2]: B (B (Fold Activation <250%))
9 | COc1ccc(S(=O)(=O)Nc2ccccc2-c2nc3ccccc3[nH]2)cc1OC [Compound 143] | > 150 µM |  |  | 
10 | CN(C)c1ccc(C(=O)Nc2cccc(-c3nc4ccncc4o3)c2)cc1 [Compound 431] | 5 to 50 µM |  |  | FOLD ACT. MS [4]: B (B (Fold Activation <250%))
11 | COc1cc(C(=O)Nc2cccc(-c3cn4cccnc4n3)c2)cc(OC)c1OC [Compound 218] | < 5 µM |  |  | FOLD ACT. MS [4]: A (A (Fold activation >250%))
12 | O=C(Nc1cccc(-c2nc3ccncc3s2)c1)c1ccc2ccccc2n1 [Compound 307] | < 5 µM |  |  | FOLD ACT. MS [4]: A (A (Fold activation >250%))
13 | COc1cc(C(=O)Nc2ccccc2-c2cn3ccccc3n2)cc(OC)c1OC [Compound 267] | < 5 µM |  |  | FOLD ACT. MS [4]: B (B (Fold Activation <250%))
14 | COc1cc(C(=O)Nc2sccc2-c2nc3ccccc3s2)cc(OC)c1OC [Compound 144] | > 150 µM |  |  | 
15 | COc1ccc(C(=O)Nc2ccccc2-c2cccs2)cc1OC [Compound 335] | 5 to 50 µM |  |  | FOLD ACT. MS [4]: B (B (Fold Activation <250%))
16 | COc1ccc(C(=O)Nc2cc(C(=O)NCCN(C)C)cc(-c3nc4ncccc4o3)c2)cc1OC [Compound 153] | 5 to 50 µM |  |  | FOLD ACT. MS [2]: B (B (Fold Activation <250%))
17 | CN(C(=O)Nc1ccccc1-c1nc2ccccc2[nH]1)c1ccccc1 [Compound 169] | < 5 µM |  |  | FOLD ACT. MS [2]: B (B (Fold Activation <250%))

Row | SMILES | EC50 [1] | FOLD ACT. MS [5] | EC50 [6] | also measured
18 | COc1ccc(C(=O)Nc2cccc(-c3nc4cccnc4[nH]3)c2)c(OC)c1OC [Compound 181] | < 5 µM |  |  | FOLD ACT. MS [2]: A (A (Fold activation >250%))
19 | CN(C)c1cccc(C(=O)Nc2cc(CN3CCNCC3)cc(-c3nc4ncccc4o3)c2)c1 [Compound 160] | 51 to 100 µM |  |  | FOLD ACT. MS [2]: A (A (Fold activation >250%))
20 | Cc1ccc2oc(-c3cccc(NC(=O)c4cccc(N(C)C)c4)c3)nc2n1 [Compound 167] | 5 to 50 µM |  |  | FOLD ACT. MS [2]: B (B (Fold Activation <250%))
21 | Cc1cc(C(=O)Nc2cccc(-c3nc4ccncc4s3)c2)n(C(C)(C)C)n1 [Compound 228] | 5 to 50 µM |  |  | FOLD ACT. MS [4]: A (A (Fold activation >250%))
22 | COc1cc(C(=O)Nc2cncc(-c3nc4ncccc4o3)c2)cc(OC)c1OC [Compound 66] | 5 to 50 µM |  |  | 
23 | O=C(Nc1ccccc1-c1cn2c(CN3CCNCC3)csc2n1)c1c[nH]nc1-c1ccccc1 [Compound 512] |  | A (A (Fold activation >250%)) | < 5 µM | 
24 | COc1ccc(C(=O)Nc2ccccc2-c2nc3ccncc3o2)c(OC)c1 [Compound 455] | < 5 µM |  |  | FOLD ACT. MS [4]: B (B (Fold Activation <250%))
25 | Cc1cc(C)cc(C(=O)Nc2ccccc2-c2nc3ncccc3o2)c1 [Compound 482] |  | B (B (Fold Activation <250%)) | < 5 µM | 
26 | COc1ccc(C(=O)Nc2ccc(-c3nc4cnccc4s3)s2)c(OC)c1 [Compound 515] |  | B (B (Fold Activation <250%)) | < 5 µM | 
27 | CN(C)c1cccc2c(S(=O)(=O)Nc3cccc(-c4nc5ccncc5s4)c3)cccc12 [Compound 398] | 5 to 50 µM |  |  | FOLD ACT. MS [4]: B (B (Fold Activation <250%))
28 | COc1cc(C(=O)Nc2ccccc2-c2cn3c(CN(C)C)csc3n2)cc(OC)c1OC [Compound 206] | 5 to 50 µM |  |  | FOLD ACT. MS [2]: A (A (Fold activation >250%))
29 | COc1ccc(C(=O)Nc2ccc(-c3nc4cnccc4o3)s2)cc1OC [Compound 423] | < 5 µM |  |  | FOLD ACT. MS [4]: B (B (Fold Activation <250%))
30 | COc1cc(OC)cc(C(=O)Nc2ccccc2-c2nc3ccccc3[nH]2)c1 [Compound 141] | < 5 µM |  |  | FOLD ACT. MS [2]: B (B (Fold Activation <250%))
31 | O=c1[nH]c2ccc(S(=O)(=O)Nc3cccc(-c4nc5ccncc5s4)c3)cc2o1 [Compound 399] | 5 to 50 µM |  |  | FOLD ACT. MS [4]: B (B (Fold Activation <250%))
32 | COc1ccc(C(=O)Nc2ccccc2-n2cccn2)cc1OC [Compound 177] | > 150 µM |  |  | FOLD ACT. MS [2]: B (B (Fold Activation <250%))
33 | CN(C)c1cccc(C(=O)Nc2cccc(-c3nc4ncccc4o3)n2)c1 [Compound 64] | 5 to 50 µM |  |  | 

Second part, led by results:

Row | EC50 [1] | FOLD ACT. MS [5] | EC50 [6] | SMILES | also measured
34 | < 5 µM |  |  | O=C(Nc1ccccc1-c1cn2c(CN3CCSC3)csc2n1)c1cnc2ccccc2n1 [Compound 715] | FOLD ACT. MS [3]: B (B (Fold Activation <250%))
35 | < 5 µM |  |  | Cc1csc2nc(-c3ccccc3NC(=O)c3cnc4ccccc4n3)cn12 [Compound 707] | FOLD ACT. MS [3]: A (A (Fold activation >250%))
36 | 5 to 50 µM |  |  | O=C(Nc1ccccc1-c1cn2c(C(=O)O)csc2n1)c1cnc2ccccc2n1 [Compound 719] | FOLD ACT. MS [3]: A (A (Fold activation >250%))
37 |  | B (B (Fold Activation <250%)) | < 5 µM | COc1cc(C(=O)Nc2ccccc2-c2nc3ccccc3[nH]2)ccc1CN1CCCC1 [Compound 587] | 
38 |  | B (B (Fold Activation <250%)) | < 5 µM | O=C(Nc1ccccc1-c1nc2cccnc2[nH]1)c1ccc(N2CCCCC2)cc1 [Compound 527] | 
39 |  | B (B (Fold Activation <250%)) | < 5 µM | CN(C)c1cccc(C(=O)Nc2ccc(-c3nc4cnccc4s3)s2)c1 [Compound 518] | 
40 |  | A (A (Fold activation >250%)) | < 5 µM | O=C(Nc1ccccc1-c1nc2cccnc2[nH]1)c1ccc(N2CCOCC2)cc1 [Compound 526] | 
41 |  | B (B (Fold Activation <250%)) | > 150 µM | N=C(Nc1ccc(Cl)cc1)Nc1cc(-c2nc3ncccc3o2)ccn1 [Compound 634] | 
42 | < 5 µM |  |  | O=C(Nc1ccccc1-c1cn2c(Cn3ccnc3)csc2n1)c1cnc2ccccc2n1 [Compound 745] | FOLD ACT. MS [3]: A (A (Fold activation >250%))
43 |  | B (B (Fold Activation <250%)) | 5 to 50 µM | O=C(Nc1ccccc1-c1nc2ncccc2o1)c1ccc(Oc2ncccn2)cc1 [Compound 668] | 
44 |  | A (A (Fold activation >250%)) | < 5 µM | O=C(Nc1ccccc1-c1cn2c(CN3CCNCC3)csc2n1)c1cnc2ccccc2c1 [Compound 645] | 
45 | < 5 µM |  |  | O=C(Nc1ccccc1-c1cn2c(CN3CCNCC3)csc2n1)c1cc(F)cc(F)c1 [Compound 695] | FOLD ACT. MS [3]: A (A (Fold activation >250%))
46 | < 5 µM |  |  | COc1cc(OC)cc(C(=O)Nc2ccccc2-c2nc3cc(CN4CCN(C)CC4)cnc3s2)c1 [Compound 725] | FOLD ACT. MS [3]: A (A (Fold activation >250%))
47 |  | B (B (Fold Activation <250%)) | < 5 µM | COc1cc(C(=O)Nc2ccc(-c3nc4cnccc4s3)s2)cc(OC)c1OC [Compound 520] | 
48 |  | B (B (Fold Activation <250%)) | < 5 µM | O=C(Nc1ccccc1-c1cn2c(CN3CCCC3)csc2n1)c1cnc2ccccc2n1 [Compound 619] | 
49 |  | A (A (Fold activation >250%)) | 5 to 50 µM | COc1cc(C(=O)Nc2ccccc2-c2nc3cccnc3[nH]2)ccc1CN1CCNCC1 [Compound 538] | 
50 |  | A (A (Fold activation >250%)) | 5 to 50 µM | O=C(Nc1ccccc1-c1cn2c(CN3CCNCC3)csc2n1)c1cc2ccccc2s1 [Compound 544] | 
51 |  | B (B (Fold Activation <250%)) | < 5 µM | O=C(Nc1ccccc1-c1cn2c(CO)csc2n1)c1cnc2ccccc2n1 [Compound 648] | 
52 | 5 to 50 µM |  |  | Cc1ccc(C(=O)Nc2ccccc2-c2nc3cc(CN4CCOCC4)cnc3s2)cc1C [Compound 684] | FOLD ACT. MS [3]: B (B (Fold Activation <250%))
53 |  | B (B (Fold Activation <250%)) | < 5 µM | COc1cccc(C(=O)Nc2ccccc2-c2nc3cccnc3[nH]2)c1C [Compound 530] | 
